# Literature values in patent US20080038350A1, “LOW-DOSAGE PERORAL MEDICATION FOR CONTRACEPTION CONTAINING CRYSTALLINE DIENOGEST AND ETHINYL ESTRADIOL” (priority 2006, published 2008).
# What was measured:
# [1] = system: ovulation inhibition; conditions: micronized, average particle size of about 3 μm
# [2] = single dosage
Compound,optimum dosage for reliable ovulation inhibition [1],"plasma level, average particle size 3.7 μm versus powder of 22 μm [2]"
"C[C@]12CCC3=C4CCC(=O)C=C4CC[C@H]3[C@@H]1CC[C@@]2(O)CC#N [dienogest, 17α-cyanomethyl-17β-hydroxyestra-4,9-dien-3-one]",2 mg,–
C[C@H]1O[C@@H](O[C@H]2[C@@H](O)C[C@H](O[C@H]3[C@@H](O)C[C@H](O[C@H]4CC[C@@]5(C)[C@H](CC[C@@H]6[C@@H]5C[C@@H](O)[C@]5(C)[C@@H](C7=CC(=O)OC7)CC[C@]65O)C4)O[C@@H]3C)O[C@@H]2C)C[C@H](O)[C@@H]1O [digoxin],–,nearly twice as high
